# Test results published in patent publication US8324250B2 (Hoffmann-La Roche Inc., priority 2009, dated 2012).
# Target: T1, recombinant human NK3 receptor (Homo sapiens, UniProt P29371)
# T1 construct: expressed in transfected cells; host or cells: HEK293 cells (transient expression), membranes
# T1 sequence (P29371 1-465): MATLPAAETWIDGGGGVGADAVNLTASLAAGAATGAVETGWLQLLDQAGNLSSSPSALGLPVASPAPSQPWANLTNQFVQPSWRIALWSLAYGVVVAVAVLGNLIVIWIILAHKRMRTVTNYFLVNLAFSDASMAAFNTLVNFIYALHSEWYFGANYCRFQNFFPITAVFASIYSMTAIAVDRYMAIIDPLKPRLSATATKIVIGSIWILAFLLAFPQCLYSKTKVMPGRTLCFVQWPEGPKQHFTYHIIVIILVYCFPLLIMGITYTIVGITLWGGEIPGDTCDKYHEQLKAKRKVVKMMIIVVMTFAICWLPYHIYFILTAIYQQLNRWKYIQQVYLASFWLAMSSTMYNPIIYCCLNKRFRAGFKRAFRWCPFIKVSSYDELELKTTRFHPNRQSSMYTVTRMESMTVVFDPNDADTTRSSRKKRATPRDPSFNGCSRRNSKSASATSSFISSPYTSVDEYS
# Assay: [3H]SR142801 competition binding assay
# Conditions: membranes from HEK293 cells transiently expressing recombinant human NK3 receptor; [3H]SR142801 radioligand; 75 min at RT; Ki by Cheng-Prussoff; read-out: Data Ki (hNK-3 receptor affinity)
# Method: [^3H]SR142801 Competition Binding Assay
# hNK3 receptor binding experiment were performed using [^3H]SR142801 (Catalog No. TRK1035, specific activity: 74.0 Ci/mmol, Amersham, GE Healthcare UK limited, Buckinghamshire, UK) and membrane isolated from HEK293 cells transiently expressing recombinant human NK3 receptor. After thawing, the membrane homogenates were centrifuged at 48,000×g for 10 min at 4° C., the pellets were resuspended in the 50 mM Tris-HCl, 4 mM MnCl2, 1 μM phosphoramidon, 0.1% BSA binding buffer at pH 7.4 to a final assay concentration of 5 μg protein/well. […] At the end of the incubation, membranes were filtered onto unitfilter (96-well white microplate with bonded GF/C filter preincubated 1 h in 0.3% PEI+0.3% BSA, Packard BioScience, Meriden, Conn.) with a Filtermate 196 harvester (Packard BioScience) and washed 4 times with ice-cold 50 mM Tris-HCl, pH 7.4 buffer. Nonspecific binding was measured in the presence of 10 μM SB222200 for both radioligands. The radioactivity on the filter was counted (5 min) on a Packard Top-count microplate scintillation counter with quenching correction after addition of 45 μl of microscint 40 (Can berra Packard S. A., Zurich, Switzerland) and shaking for 1 h. Inhibition curves were fitted according to the Hill equation: y=100/(1+(x/IC50)^nH), where nH=slope factor using Excel-fit 4 software (Microsoft). IC50 values were derived from the inhibition curve and the affinity constant (Ki) values were calculated using the Cheng-Prussoff equation Ki═IC50/(1+[L]/KD) where [L] is the concentration of radioligand and KD is its dissociation constant at the receptor, derived from the saturation isotherm. All experiments were performed in duplicate and the mean±standard error (SEM) of the individual Ki values was calculated.
row,Compound,Ki [nM]
1,"C[C@H](NC(=O)C1(c2ccccc2)CCN(C(=O)c2cnc(-c3ccccc3)nc2)CC1)c1ccccc1 [Example 52, 4-Phenyl-1-(2-phenyl-pyrimidine-5-carbonyl)-piperidine-4-carboxylic acid ((S)-1-phenyl-ethyl)-amide]",24.1
2,C[C@H](NC(=O)C1(c2ccccc2)CCN(C(=O)c2ccc(-c3ccccc3)nc2)CC1)c1ccccc1 [Example 56],20.6
3,"C[C@H](NC(=O)C1(c2ccccc2)CCN(C(=O)C2CCN(c3ccc(C#N)cn3)CC2)CC1)c1ccccc1 [Example 61, 1-(5′-Cyano-3,4,5,6-tetrahydro-2H-[1,2′]bipyrid-inyl-4-carbonyl)-4-phenyl-piperidine-4-carboxylic acid ((S)-1-phenyl-ethyl)-amide]",37.9
4,"C[C@H](NC(=O)C1(c2ccccc2)CCN(C(=O)c2cc(-c3ccc(F)cc3)no2)CC1)c1ccccc1 [Example 62, 1-[3-(4-Fluoro-phenyl)-isoxazole-5-carbonyl]-4-phenyl-piperidine-4-carboxylic acid ((S)-1-phenyl-ethyl)-amide]",63.5
5,C[C@H](NC(=O)C1(c2ccccc2)CCN(C(=O)c2ccc(N3CCCCC3=O)cc2)CC1)c1ccccc1 [Example 63],44.9
6,"CC(C)c1nc(-c2ccc(C(=O)N3CCC(C(=O)N[C@@H](C)c4ccccc4)(c4ccccc4)CC3)cc2)no1 [Example 66, 1-[4-(5-Isopropyl-[1,2,4]oxa-diazol-3-yl)-benzoyl]-4-phenyl-piperidine-4-carboxylic acid ((S)-1-phenyl-ethyl)-amide]",59
7,"CCc1nc(-c2ccc(C(=O)N3CCC(C(=O)N[C@@H](C)c4ccccc4)(c4ccccc4)CC3)cc2)no1 [Example 71, 1-[4-(5-Ethyl-[1,2,4]oxa-diazol-3-yl)-benzoyl]-4-phenyl-piperidine-4-carboxylic acid ((S)-1-phenyl-ethyl)-amide]",28.4
8,Cc1noc(-c2ccc(C(=O)N3CCC(C(=O)N[C@@H](C)C4CCCCC4)(c4ccccc4)CC3)cc2)n1 [Example 74],1
9,"Cc1nc(-c2ccc(C(=O)N3CCC(C(=O)N[C@@H](C)C4CCCCC4)(c4ccccc4)CC3)cc2)no1 [Example 75, 1-[4-(5-Methyl-[1,2,4]oxa-diazol-3-yl)-benzoyl]-4-phenyl-piperidine-4-carboxylic acid ((S)-1-cyclohexyl-ethyl)-amide]",3.9
10,"Cc1noc(-c2ccc(C(=O)N3CCC(C(=O)N[C@@H](C)c4ccc(F)cc4)(c4ccccc4)CC3)cc2)n1 [Example 76, 1-[4-(3-Methyl-[1,2,4]oxa-diazol-5-yl)-benzoyl]-4-phenyl-piperidine-4-carboxylic acid [(S)-1-(4-fluoro-phenyl)-ethyl]-amide]",2.9
11,"Cc1nc(-c2ccc(C(=O)N3CCC(C(=O)N[C@@H](C)c4ccc(F)cc4)(c4ccccc4)CC3)cc2)no1 [Example 77, 1-[4-(5-Methyl-[1,2,4]oxa-diazol-3-yl)-benzoyl]-4-phenyl-piperidine-4-carboxylic acid [(S)-1-(4-fluoro-phenyl)-ethyl]-amide]",12.2
12,"C[C@H](NC(=O)C1(c2ccccc2)CCN(C(=O)c2ccc(N3CCS(=O)(=O)CC3)cc2)CC1)c1ccc(F)cc1 [Example 78, 1-[4-(1,1-Dioxo-1λ6-thiomor-pholin-4-yl)-benzoyl]-4-phenyl-piperidine-4-carboxylic acid [(S)-1-(4-fluoro-phenyl)-ethyl]-amide]",11.8
13,"C[C@H](NC(=O)C1(c2ccccc2)CCN(C(=O)c2ccc(-c3ccc(F)cc3)cc2)CC1)c1ccc(F)cc1 [Example 79, 1-(4′-Fluoro-biphenyl-4-carbonyl)-4-phenyl-piperidine-4-carboxylic acid [(S)-1-(4-fluoro-phenyl)-ethyl]-amide]",9.5
14,"C[C@H](NC(=O)C1(c2ccccc2)CCN(C(=O)c2ccc(N3CCS(=O)(=O)CC3)cc2)CC1)C1CCCCC1 [Example 80, 1-[4-(1,1 - Dioxo-1λ6-thiomorpholin-4-yl)-benzoyl]-4-phenyl-piperidine-4-carboxylic acid ((S)-1-cyclohexyl-ethyl)-amide]",4.1
15,"Cc1noc(-c2ccc(C(=O)N3CCC(C(=O)N[C@@H](C)c4ccccc4)(c4ccc(F)cc4)CC3)cc2)n1 [Example 81, 4-(4-Fluoro-phenyl)-1-[4-(3-methyl-[1,2,4]oxa-diazol-5-yl)-benzoyl]-piperidine-4-carboxylic acid ((S)-1-phenyl-ethyl)-amide]",6
16,"Cc1noc(-c2ccc(C(=O)N3CCC(C(=O)N[C@@H](C)c4ccc(F)cc4)(c4ccccc4)CC3)cn2)n1 [Example 82, 1-[6-(3-Methyl-[1,2,4]oxa-diazol-5-yl)-pyridine-3-carbonyl]-4-phenyl-piperidine-4-carboxylic acid [(S)-1-(4-fluoro-phenyl)-ethyl]-amide]",5.3

# The remaining lines, values ahead:
row,Ki [nM],Compound
1,78.5,"C[C@H](NC(=O)C1(c2ccccc2)CCN(C(=O)c2ccc(-c3cncnc3)cc2)CC1)c1ccccc1 [Example 44, 4-Phenyl-1-(4-pyrimidin-5-yl-benzoyl)-piperidine-4-carboxylic acid ((S)-1-phenyl-ethyl)-amide]"
2,26.7,"C[C@H](NC(=O)C1(c2ccccc2)CCN(C(=O)c2ccc(-c3ccc(C(F)(F)F)cn3)cc2)CC1)c1ccccc1 [Example 45, 4-Phenyl-1-[4-(5-trifluorome-thyl-pyridin-2-yl)benzoyl]-piperidine-4-carboxylic acid ((S)-1-phenyl-ethyl)-amide]"
3,24.7,"C[C@H](NC(=O)C1(c2ccccc2)CCN(C(=O)c2ccc(-c3ncccn3)cc2)CC1)c1ccccc1 [Example 47, 4-Phenyl-1-(4-pyrimidin-2-yl-benzoyl)-piperidine-4-carboxylic acid ((S)-1-phenyl-ethyl)-amide]"
4,23.2,"C[C@H](NC(=O)C1(c2ccccc2)CCN(C(=O)c2ccc(-c3cccnc3)cc2)CC1)c1ccccc1 [Example 53, 4-Phenyl-1-(4-pyridin-3-yl-benzoyl)-piperidine-4-carboxylic acid ((S)-1-phenyl-ethyl)-amide]"
5,7.2,"C[C@H](NC(=O)C1(c2ccccc2)CCN(C(=O)c2ccc(-c3ccc(F)cc3)cc2)CC1)c1ccccc1 [Example 54, 1-(4′-Fluoro-biphenyl-4-carbonyl)-4-phenyl-piperidine-4-carboxylic acid ((S)-1-phenyl-ethyl)-amide]"
6,14.8,"C[C@H](NC(=O)C1(c2ccccc2)CCN(C(=O)c2ccc(-c3ccc(C#N)cc3)cc2)CC1)c1ccccc1 [Example 55, 1-(4′-Cyano-biphenyl-4-carbonyl)-4-piperidine-phenyl-4-carboxylic acid ((S)-1-phenyl-ethyl)-amide]"
7,37,"CC(=O)c1ccc(-c2ccc(C(=O)N3CCC(C(=O)N[C@@H](C)c4ccccc4)(c4ccccc4)CC3)cc2)cc1 [Example 59, 1-(4′-Acetyl-biphenyl-4-carbonyl)-4-phenyl-piperidine-4-carboxylic acid ((S)-1-phenyl-ethyl)-amide]"
8,31.5,"CC(=O)c1cccc(-c2ccc(C(=O)N3CCC(C(=O)N[C@@H](C)c4ccccc4)(c4ccccc4)CC3)cc2)c1 [Example 60, 1-(3′-Acetyl-biphenyl-4-carbonyl)-4-phenyl-piperidine-4-carboxylic acid ((S)-1-phenyl-ethyl)-amide]"
9,72.7,"C[C@H](NC(=O)C1(c2ccccc2)CCN(C(=O)c2ccc(-c3ccc(N)cc3)cc2)CC1)c1ccccc1 [Example 64, 1-(4′-Amino-biphenyl-4-carbonyl)-4-phenyl-piperidine-4-carboxylic acid ((S)-1-phenyl-ethyl)-amide]"
10,20.9,Cc1nc(-c2ccc(C(=O)N3CCC(C(=O)N[C@@H](C)c4ccccc4)(c4ccccc4)CC3)cc2)cs1 [Example 68]
11,77.3,"C[C@H](NC(=O)C1(c2ccccc2)CCN(C(=O)c2ccc(-c3ccn(C)n3)cc2)CC1)c1ccccc1 [Example 69, l-[4-(1-Methyl-1 H-pyrazol-3-yl)-benzoyl]-4-phenyl-piperidine-4-carboxylic acid ((S)-1-phenyl-ethyl)-amide]"
12,15.8,"C[C@H](NC(=O)C1(c2ccccc2)CCN(C(=O)c2ccc(-c3nnn(C)n3)cc2)CC1)c1ccccc1 [Example 72, 1-[4-(2-Methyl-2H-tetrazol-5-yl)-benzoyl]-4-phenyl-piperidine-4-carboxylic acid ((S)-1-phenyl-ethyl)-amide]"
